{"source": "patent US4218443A", "about": "“Polyether ionophores as antiobesity and hypotriglyceridemic agents” (Hoffmann-La Roche Inc., priority 1979, dated 1980)", "key": {"[1]": {"tested_on": "hepatic fatty acid synthesis", "experiment": "In vivo hepatic fatty acid synthesis in meal-fed rats", "parameters": "species or system Charles River rat", "details": "60 mg/kg i.p., sodium salt, mean ± SE", "experimental": "(§1) In the following examples, female rats (Charles River CD strain, 180-200 g) were housed individually in wire bottom cages in a temperature (22°) and light (12 hr light and 12 hr dark) regulated room. They had free access to Purina Rodent Chow and water."}, "[2]": {"tested_on": "meal-fed Charles River rats", "experiment": "Food consumption and serum parameters in meal-fed rats (in vivo fatty acid synthesis experiments)", "parameters": "species or system Charles River rat", "details": "60 mg/kg i.p., sodium salt, mean ± SE", "experimental": "as §1\nFaster enzymatic procedure for serum triglycerides, Clinical Chemistry, 21: 1983-1985], cholesterol, [C. C. Allain, L. Poon, S. G. Chan, W. Richmond and P. Fu (1974). Enzymatic determination of total serum cholesterol, Clinical Chemistry, 20: 470-475] and glucose, [R. Konig, H. Dauwalder and R. Richterich (1971). Vergleichende Bestimmunogen der Uringlucosekonzentration mit der Polarimetrie und einer enzymatischen Methode (Hexokinase/Glucose-6-Phosphat-Dehydrogenase), Schweiz. Med. Wschr., 101: 860-866] by enzymatic procedures."}, "pancreatic lipase": {"target": "T1, pancreatic lipase (Rattus norvegicus, UniProt P27657)", "T1 construct": "stimulated to release pancreatic proteins by addition of 10^-5 M carbachol; from tissue; host or cells: pancreatic lobules of fasted Charles River female rats; released pancreatic juice, centrifuged", "T1 sequence (P27657 17-465)": "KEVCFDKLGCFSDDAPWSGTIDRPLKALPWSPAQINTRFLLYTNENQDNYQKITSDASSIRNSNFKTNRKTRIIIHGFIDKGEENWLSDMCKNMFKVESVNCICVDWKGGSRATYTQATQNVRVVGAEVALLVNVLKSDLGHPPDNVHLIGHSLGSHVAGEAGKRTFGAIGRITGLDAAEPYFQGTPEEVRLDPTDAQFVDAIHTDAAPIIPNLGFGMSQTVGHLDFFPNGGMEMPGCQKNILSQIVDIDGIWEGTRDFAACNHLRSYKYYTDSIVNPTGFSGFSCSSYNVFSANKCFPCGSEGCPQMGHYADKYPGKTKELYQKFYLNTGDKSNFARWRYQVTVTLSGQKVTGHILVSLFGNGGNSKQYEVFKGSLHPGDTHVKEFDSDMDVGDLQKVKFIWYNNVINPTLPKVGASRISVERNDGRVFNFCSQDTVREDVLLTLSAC", "experiment": "In vitro pancreatic lipase screen ([14C]-triolein assay)", "format": "biochemical", "details": "read-out: Pancreatic Lipase Activity I50", "experimental": "The method for assaying pacreatic lipase in vitro using [^14 C]-triolein was based on the method of Garfinkel and Schotz for lipoprotein lipase, [A. S. Garfinkel and M. C. Schotz (1972). […] Glycerol tri[1-^14 C]oleate (32 mM) was emulsified in 0.2 M Tris-HCl pH 8 containing 0.15 M NaCl, bovine serum albumin (15 mg/ml) and sodium taurocholate (1.4 mM) by sonication for three, one min intervals at 80 watts. Final assay volume was 1.0 ml. The reaction was initiated by the addition of enzyme and was allowed to proceed for 10 min. The reaction was linear for up to 20 min. The liberated free fatty acids were extracted into 0.1 M KOH and quantitated in a liquid scintillation counter using 2,5-bis-2-(5-tertbutylbenzoxazolyl)-tniophene (BBOT) scintillation fluid (Yorktown Research, South Hackensack, N.J.).\nIonophores were added to the above assay as solutions in either 90% ethanol or water, pH 8; 90% ethanol had no effect on the enzyme activity assayed by either method."}, "[3]": {"tested_on": "intestinal absorption of triglycerides (corn oil)", "experiment": "In vivo absorption of triglycerides (corn oil absorption)"}, "human pancreatic lipase": {"target": "T2, human pancreatic lipase (Homo sapiens, UniProt P16233)", "T2 construct": "Human pancreatic juice was obtained from a patient with acute pancreatitis; from tissue; host or cells: human pancreatic juice from the cannulated duct of a patient with acute pancreatitis; gift of Dr. George Nardi, Massachusetts General Hospital", "T2 sequence (P16233 17-465)": "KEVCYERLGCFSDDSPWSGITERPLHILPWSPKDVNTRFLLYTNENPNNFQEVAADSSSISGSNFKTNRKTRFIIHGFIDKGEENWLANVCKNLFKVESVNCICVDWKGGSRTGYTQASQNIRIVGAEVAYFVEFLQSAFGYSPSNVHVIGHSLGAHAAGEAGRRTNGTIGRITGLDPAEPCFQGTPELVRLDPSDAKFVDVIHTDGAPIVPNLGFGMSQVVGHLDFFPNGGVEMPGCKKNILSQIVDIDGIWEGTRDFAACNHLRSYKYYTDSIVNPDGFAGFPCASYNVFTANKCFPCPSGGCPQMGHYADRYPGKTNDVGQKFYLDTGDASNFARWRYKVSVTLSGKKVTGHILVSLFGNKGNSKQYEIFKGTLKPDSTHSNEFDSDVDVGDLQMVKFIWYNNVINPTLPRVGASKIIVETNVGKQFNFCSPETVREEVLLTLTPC", "experiment": "In vitro titrimetric (Radiometer pH-stat) pancreatic lipase assay, Dixon plots", "format": "biochemical", "details": "in vitro Radiometer assay, read-out: Inhibition constants for bromolasalocid inhibition of human pancreatic lipase"}, "[4]": {"tested_on": "fatty acid synthesis in isolated hepatocytes", "experiment": "In vitro fatty acid synthesis in isolated hepatocytes", "format": "cell-based, Charles River female rat", "details": "Rattus norvegicus, Hepatocyte, 1 h, pH 7.4; for activity at 500 µM: 0.5 mM; for activity at 1000 µM: 1.0 mM", "experimental": "Hepatocytes were prepared from meal-fed Charles River female rats as described previously, [A. C. Sullivan, J. Triscari, J. G. Hamilton and J. A. Ontko (1977). Hypolipidemic activity of (-)-hydroxycitrate, Lipids, 12: 1-9]. Briefly, rats were anesthetized with Nembutal, livers were perfused in situ and hepatocytes were isolated in Krebs-Henseleit bicarbonate buffer, pH 7.4. Incubations with isolated hepatocytes were performed in triplicate at 37° C. Each incubation flask contained in a total volume of 2.1 ml, 10.5 mg cells (dry weight), 1 ml of Krebs-Henseleit buffer, pH 7.4, radioactive substrate (1 μCi [U-^14 C]alanine, 1 mCi^3 H2 O and 1 μmole alanine) and 0.3% glucose. The appropriate concentration of inhibitor was prepared in dimethylsulfoxide and added to the incubation flask. Dimethylsulfoxide had no effect on fatty acid synthesis. ^3 H2 O was used to determine the total rate of fatty acid synthesis independently of carbon precursors of acetyl CoA. [^14 C]alanine was used as an acetyl CoA precursor. Rates of fatty acid synthesis were determined as described previously, [A. C. Sullivan, J. Triscari, J. G. Hamilton and J. A. Ontko (1977). Hypolipidemic activity of (-)-hydroxycitrate, Lipids, 12: 1-9]. Data are expressed as nmoles ^3 H2 O or [^14 C]alanine converted into fatty acids per mg dry weight cells in 60 minutes."}, "[5]": {"details": "Experiment 1, di-(N-methylglucamine), 325 mg/kg p.o."}, "[6]": {"details": "Experiment 1, ethanolate, 145 mg/kg p.o."}, "[7]": {"details": "Experiment 1, sodium, 140 mg/kg p.o."}, "[8]": {"details": "read-out: Fatty Acid Synthesis 3H2O"}, "[9]": {"details": "read-out: Fatty Acid Synthesis [14C]alanine"}}, "note": "pIC50, pKi: −log10 of the molar value. Like-named read-outs stand apart in the source and are kept apart here.", "data": [{"compound": "Monensin", "values": [{"measurement": "Fatty Acid Synthesis 3H2O converted", "setting": "[1]", "value": "14.8 ± 4.0 μmoles per 1 g liver in 30 min"}, {"measurement": "Fatty Acid Synthesis [14C]alanine converted", "setting": "[1]", "value": "209 ± 64 nmoles per 1 g liver in 30 min"}, {"measurement": "Food Consumption", "setting": "[2]", "value": "16.1 ± 1.4", "unit": "g"}]}, {"compound": "CC[C@@H](C(=O)[C@@H](C)[C@@H](O)[C@H](C)CCc1c(Br)cc(C)c(O)c1C(=O)O)[C@H]1O[C@](CC)([C@H]2CC[C@](O)(CC)[C@H](C)O2)C[C@@H]1C", "note": "[Bromolasalocid]", "values": [{"measurement": "pIC50", "setting": "pancreatic lipase", "value": 3.22}, {"measurement": "Area under curve (corn oil absorption)", "setting": "[3]; [5]", "value": 660}, {"measurement": "Area under curve, % of control", "setting": "[3]; [5]", "value": "60 % of control"}, {"measurement": "Area under curve (corn oil absorption)", "setting": "[3]; [6]", "value": 704}, {"measurement": "Area under curve, % of control", "setting": "[3]; [6]", "value": "64 % of control"}, {"measurement": "Area under curve (corn oil absorption)", "setting": "[3]; [7]", "value": 659}, {"measurement": "Area under curve, % of control", "setting": "[3]; [7]", "value": "60 % of control"}]}, {"compound": "CC[C@@H](C(=O)[C@@H](C)[C@@H](O)[C@H](C)CCc1c(Br)cc(C)c(O)c1C(=O)O)[C@H]1O[C@](CC)([C@H]2CC[C@](O)(CC)[C@H](C)O2)C[C@@H]1C", "note": "[Bromolasalocid, Na^+]", "values": [{"measurement": "pKi", "setting": "human pancreatic lipase", "value": 4.30}, {"measurement": "activity at 500 µM", "setting": "[4]; [8]", "value": 14, "unit": "%"}, {"measurement": "activity at 500 µM", "setting": "[4]; [9]", "value": 0, "unit": "%"}, {"measurement": "activity at 1000 µM", "setting": "[4]; [8]", "value": 22, "unit": "%"}, {"measurement": "activity at 1000 µM", "setting": "[4]; [9]", "value": 0, "unit": "%"}]}, {"compound": "CC[C@@H](C(=O)[C@@H](C)[C@@H](O)[C@H](C)CCc1ccc(C)c(OC(=O)c2ccc(Br)cc2)c1C(=O)O)[C@H]1O[C@](CC)([C@H]2CC[C@](O)(CC)[C@H](C)O2)C[C@@H]1C", "note": "[Lasalocid 4-bromo benzoate]", "values": [{"measurement": "pIC50", "setting": "pancreatic lipase", "value": 3.89}]}, {"compound": "CC[C@@H](C(=O)[C@@H](C)[C@@H](O)[C@H](C)CCc1c(Br)cc(C)c(O)c1C(=O)O)[C@H]1O[C@](CC)([C@H]2CC[C@](O)(CC)[C@H](C)O2)C[C@@H]1C", "note": "[Bromolasalocid, Ethanolate]", "values": [{"measurement": "pKi", "setting": "human pancreatic lipase", "value": 4.00}]}, {"compound": "CCCCCCCCCCCCCCCCCC(=O)Oc1c(C)ccc(CC[C@@H](C)[C@H](O)[C@H](C)C(=O)[C@H](CC)[C@H]2O[C@](CC)([C@H]3CC[C@](O)(CC)[C@H](C)O3)C[C@@H]2C)c1C(=O)O", "note": "[Lasalocid Stearate]", "values": [{"measurement": "pIC50", "setting": "pancreatic lipase", "value": 3.96}]}, {"compound": "CC[C@@H](C(=O)[C@@H](C)[C@@H](O)[C@H](C)CCc1c(Br)cc(C)c(O)c1C(=O)O)[C@H]1O[C@](CC)([C@H]2CC[C@](O)(CC)[C@H](C)O2)C[C@@H]1C", "note": "[Bromolasalocid, di-(N-methylglucamine)]", "values": [{"measurement": "pKi", "setting": "human pancreatic lipase", "value": 3.80}]}, {"compound": "CC[C@@H](C(=O)[C@@H](C)[C@@H](O)[C@H](C)CCc1c([N+](=O)[O-])cc(C)c(O)c1C(=O)O)[C@H]1O[C@](CC)([C@H]2CC[C@](O)(CC)[C@H](C)O2)C[C@@H]1C", "note": "[Nitrolasalocid]", "values": [{"measurement": "pIC50", "setting": "pancreatic lipase", "value": 2.88}]}, {"compound": "C[C@H](CCC(=O)O)C[C@H](C)C[C@H](C)C(=O)/C=C(\\O)[C@H](C)C[C@H](C)C/C=C/[C@@H](C)[C@@H](O)[C@@H](C)[C@@H](O)C[C@@H]1CC[C@@](C)([C@H]2CC[C@@](C)([C@@H](C)O)O2)O1", "note": "[Ionomycin]", "values": [{"measurement": "pIC50", "setting": "pancreatic lipase", "value": 3.02}]}, {"compound": "CC/C(=C\\C=C\\[C@@H]1C=C[C@@H]2[C@@H](CC)CC[C@H]2[C@@H]1C(=O)c1ccc[nH]1)[C@@H]1O[C@@H]([C@@H](C)C(=O)O)CC[C@@H]1C", "note": "[X-14547A]", "values": [{"measurement": "pIC50", "setting": "pancreatic lipase", "value": 3.15}]}, {"compound": "CC[C@@H](C(=O)[C@@H](C)[C@@H](O)[C@H](C)CCc1c(Cl)cc(C)c(O)c1C(=O)O)[C@H]1O[C@](CC)([C@H]2CC[C@](O)(CC)[C@H](C)O2)C[C@@H]1C", "note": "[Chlorolasalocid]", "values": [{"measurement": "pIC50", "setting": "pancreatic lipase", "value": 2.15}]}, {"compound": "CC[C@@H](C(=O)[C@@H](C)[C@@H](O)[C@H](C)CCc1c(I)cc(C)c(O)c1C(=O)O)[C@H]1O[C@](CC)([C@H]2CC[C@](O)(CC)[C@H](C)O2)C[C@@H]1C", "note": "[Iodolasalocid]", "values": [{"measurement": "pIC50", "setting": "pancreatic lipase", "value": 3.59}]}, {"compound": "Lysocellin", "values": [{"measurement": "pIC50", "setting": "pancreatic lipase", "value": 3.10}]}, {"compound": "CC[C@@H](C(=O)[C@@H](C)[C@@H](O)[C@H](C)CCc1ccc(C)c(O)c1C(=O)O)[C@H]1O[C@](CC)([C@H]2CC[C@](O)(CC)[C@H](C)O2)C[C@@H]1C", "note": "[Lasalocid]", "values": [{"measurement": "pIC50", "setting": "pancreatic lipase", "value": 4.00}]}]}
